The term EC50 denotes the concentration giving half of the maximal effect.

This test deals with T1, LXR beta (Homo sapiens, UniProt P55055).
T1 construct: 5 μL of 4×LXR beta-LBD was added to each well (final concentration 5 nM); purchased Thermofisher PV4658
T1 sequence (P55055 222-460 limits assumed): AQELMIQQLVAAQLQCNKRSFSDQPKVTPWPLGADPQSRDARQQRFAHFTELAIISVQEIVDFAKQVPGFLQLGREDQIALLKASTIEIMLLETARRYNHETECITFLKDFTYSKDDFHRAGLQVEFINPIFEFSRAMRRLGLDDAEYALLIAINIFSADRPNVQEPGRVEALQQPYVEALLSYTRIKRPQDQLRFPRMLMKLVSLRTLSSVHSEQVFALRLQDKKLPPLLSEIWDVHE
Put plainly: LXR beta agonist assay (Lanthascreen TR-FRET). The settings on record: LXR beta-LBD 5 nM, read-out: LXR-β EC50. The test is classed as biochemical. Here is the method: EC50 values of compounds against LXR beta were determined at Integral BioSciences (India) using Lanthascreen TR-FRET (Thermofisher, Cat #PV4658). Assay was performed in a 20 μL final volume in a Black 384-well plate (Corning, Cat #4511). Dose response curve for the compounds were prepared in duplicates with starting concentration at 30 μM and a three-fold titration was performed. The reaction buffer consisted of TR-FRET Coregulator Buffer G. To the compound dilution, 5 μL of 4×LXR beta-LBD was added to each well (final concentration 5 nM). An equal volume (5 μL) containing 4×Fl-D22/Tb-anti GST antibody (final concentration 100 nM/10 nM) was added to initiate the enzyme reaction and the reaction was incubated for 60 min at 22° C. after which the plates were read using BioTek Plate reader for TR-FRET every hour up to 4 hours.
Analysis was done using the standard curve by non-linear regression, variable slope inhibitor curve fits (Graph-Pad Prism) and EC50's of compounds were determined wherever possible.
For orientation: In TR-FRET formats the signal depends on donor and acceptor labels being close together.
On to `O=C(NCC(F)F)c1ccc(NC2CN(C3CCN(C(=O)C(O)(c4ccccc4)C(F)(F)F)CC3)C2)cc1Cl` (centres unmarked) [Compound 1.98, 2-chloro-N-(2,2-difluoroethyl)-4-((1-(1-(3,3,3-trifluoro-2-hydroxy-2-phenylpropanoyl)piperidin-4-yl)azetidin-3-yl)amino)benzamide], for which the EC50 was 9.8 µM.
The figure for `CC1CN(S(=O)(=O)c2ccccc2Cl)CCN1c1nnc(-c2ccc(C(=O)N(C)C)c(F)c2)s1` (centres unmarked) [Compound 1.82, 4-(5-(4-(2-chlorophenylsulfonyl)-2-methylpiperazin-1-yl)-1,3,4-thiadiazol-2-yl)-2-fluoro-N,N-dimethylbenzamide] is 9.02 µM.
The figure for `O=C(c1ccc(NC2CN(C3CCN(C(=O)C(O)(c4ccccc4)C(F)(F)F)CC3)C2)cc1Cl)N1CCN(C(=O)C2CCC2)CC1` (centres unmarked) [Compound 1.102, 1-(4-(3-((3-chloro-4-(4-(cyclobutanecarbonyl)piperazine-1-carbonyl)phenyl)amino)azetidin-1-yl)piperidin-1-yl)-3,3,3-trifluoro-2-hydroxy-2-phenylpropan-1-one] is 3.18 µM; for `COCCCN(C)C(=O)c1ccc(NC2CN(C3CCN(C(=O)[C@](O)(c4ccccc4)C(F)(F)F)CC3)C2)cc1Cl` [Compound 1.124, (R)-2-chloro-N-(3-methoxypropyl)-N-methyl-4-(1-(1-(3,3,3-trifluoro-2-hydroxy-2-phenylpropanoyl)piperidin-4-yl)azetidin-3-ylamino)benzamide] it is 1.57 µM; for `N#Cc1ccccc1S(=O)(=O)N1CCC(C2CCN(c3cc(Cl)c4c(=O)[nH]ccc4c3)CC2)CC1` [Compound 1.15, 2-(1′-(8-chloro-1-oxo-1,2-dihydroisoquinolin-6-yl)-4,4′-bipiperidin-1-ylsulfonyl)benzonitrile] it is 2.74 µM.
The figure for `CC(=O)N1CCN(C(=O)c2ccc(NC3CN(C4CCN(C(=O)[C@@](O)(c5ccccc5)C(F)(F)F)CC4)C3)cc2Cl)CC1` (single isomer, unassigned) [Compound 1.105] is 2.25 µM.
For `O=C(c1ccc(NC2CN(C3CCN(C(=O)C(O)(c4ccccc4)C(F)(F)F)CC3)C2)cc1Cl)N1CCCCC1` (centres unmarked) [Compound 1.89, 1-(4-(3-(3-chloro-4-(piperidine-1-carbonyl)phenylamino)azetidin-1-yl)piperidin-1-yl)-3,3,3-trifluoro-2-hydroxy-2-phenylpropan-1-one], the concentration giving a half-maximal response (EC50) is greater than 30 µM.
Then `COc1ncc(Cl)cc1S(=O)(=O)N1CC=C(c2nnc(-c3ccc(C(=O)N(C)C)c(Cl)c3)s2)CC1` [Compound 1.62, 2-chloro-4-(5-(1-(5-chloro-2-methoxypyridin-3-ylsulfonyl)-1,2,3,6-tetrahydropyridin-4-yl)-1,3,4-thiadiazol-2-yl)-N,N-dimethylbenzamide], with greater than 10 µM.
The figure for `CC(C)(C(=O)N1CCC(C2CCN(c3cc(Cl)c4c(=O)[nH]ccc4c3)CC2)CC1)c1ccccc1` [Compound 1.24, 8-chloro-6-(1′-(2-methyl-2-phenylpropanoyl)-4,4′-bipiperidin-1-yl)isoquinolin-1(2H)-one] is 2.48 µM; for `CN(C)C(=O)c1ccc(-c2nnc(C3=CCN(C(=O)C(C)(C)C)CC3)s2)cc1Cl` [Compound 1.59, 2-chloro-N,N-dimethyl-4-(5-(1-pivaloyl-1,2,3,6-tetrahydropyridin-4-yl)-1,3,4-thiadiazol-2-yl)benzamide] it is 5.45 µM.
Then `CN(CCCC(F)(F)F)C(=O)c1ccc(NC2CN(C3CCN(C(=O)[C@](O)(c4ccccc4)C(F)(F)F)CC3)C2)cc1Cl` [Compound 1.125, (R)-2-chloro-N-methyl-4-(1-(1-(3,3,3-trifluoro-2-hydroxy-2-phenylpropanoyl)piperidin-4-yl)azetidin-3-ylamino)-N-(4,4,4-trifluorobutyl)benzamide], with 3.98 µM; and `CN(C)C(=O)c1ccc(-c2nnc(C3=CCN(S(=O)(=O)c4cc(Cl)ccc4Cl)CC3)s2)cc1Cl` [Compound 1.61, 2-chloro-4-(5-(1-(2,5-dichlorophenylsulfonyl)-1,2,3,6-tetrahydropyridin-4-yl)-1,3,4-thiadiazol-2-yl)-N,N-dimethylbenzamide], with greater than 10 µM.
On to `CN(C)C(=O)c1ccc(NC2CN(C3CCN(S(=O)(=O)c4ccccc4Cl)CC3)C2)cc1Cl` [Compound 1.2, 2-chloro-4-(1-(1-(2-chlorophenylsulfonyl)piperidin-4-yl)azetidin-3-ylamino)-N,N-dimethylbenzamide], for which the EC50 stood at 3.34 µM.
The figure for `Cc1cccc([C@](O)(C(=O)N2CCC(N3CC(Nc4ccc(C(=O)N(C)C)c(Cl)c4)C3)CC2)C(F)(F)F)c1` (single isomer, unassigned) [Compound 1.121] is 2.85 µM; for `CC1CN(C(=O)c2ccc(NC3CN(C4CCN(C(=O)C(O)(c5ccccc5)C(F)(F)F)CC4)C3)cc2Cl)C1` (centres unmarked) [Compound 1.94, 1-(4-(3-((3-chloro-4-(3-methylazetidine-1-carbonyl)phenyl)amino)azetidin-1-yl)piperidin-1-yl)-3,3,3-trifluoro-2-hydroxy-2-phenylpropan-1-one] it is 6.79 µM; for `CN(C)C(=O)c1ccc(NC2CN(C3CCN(C(=O)[C@@](O)(c4ccc(F)cc4)C(F)(F)F)CC3)C2)cc1Cl` (single isomer, unassigned) [Compound 1.116] it is 9.85 µM.
Then `O=C(NCC(F)F)c1ccc(NC2CN(C3CCN(C(=O)[C@@](O)(c4ccccc4)C(F)(F)F)CC3)C2)cc1Cl` (single isomer, unassigned) [Compound 1.107], with 1.3 µM; and `CN(C)C(=O)c1ccc(NC2CN(C3CCN(C(=O)[C@@](O)(c4cccc(Cl)c4)C(F)(F)F)CC3)C2)cc1Cl` (single isomer, unassigned) [Compound 1.118], with 0.241 µM.
The figure for `CCN(CC)C(=O)c1ccc(NC2CN(C3CCN(C(=O)[C@](O)(c4ccccc4)C(F)(F)F)CC3)C2)cc1Cl` (single isomer, unassigned) [Compound 1.97] is 1.17 µM.
For the compound `CN(C)C(=O)c1ccc(-c2nnc(C3=CCN(C(=O)C45CC6CC(CC(C6)C4)C5)CC3)s2)cc1Cl` [Compound 1.65, 4-{5-[1-(adamantane-1-carbonyl)-1,2,3,6-tetrahydropyridin-4-yl]-1,3,4-thiadiazol-2-yl}-2-chloro-N,N-dimethylbenzamide], the EC50 was determined as 3.96 µM.
Then `O=C(c1ccc(NC2CN(C3CCN(C(=O)[C@](O)(c4ccccc4)C(F)(F)F)CC3)C2)cc1Cl)N1CCCCC1` (single isomer, unassigned) [Compound 1.109], with 3.01 µM; and `CN(C)C(=O)c1ccc(N(C)C2CN(C3CCN(C(=O)[C@](O)(c4ccccc4)C(F)(F)F)CC3)C2)cc1Cl` [Compound 1.32, (R)-2-chloro-N,N-dimethyl-4-(methyl(1-(1-(3,3,3-trifluoro-2-hydroxy-2-phenylpropanoyl)piperidin-4-yl)azetidin-3-yl)amino)benzamide], with 7.23 µM; and `CN(C)C(=O)c1ccc(-c2nnc(N3CCN(S(=O)(=O)c4ccccc4Cl)CC3)s2)cc1F` [Compound 1.70, 4-(5-(4-(2-chlorophenylsulfonyl)piperazin-1-yl)-1,3,4-thiadiazol-2-yl)-2-fluoro-N,N-dimethylbenzamide], with 9.77 µM.
Regarding `CN(C)C(=O)c1ccc(NC2CN(C3CC4(C3)CN(C(=O)[C@](O)(c3ccccc3)C(F)(F)F)C4)C2)cc1Cl` [Compound 1.81, 2-chloro-N,N-dimethyl-4-(1-(2-((R)-3,3,3-trifluoro-2-hydroxy-2-phenylpropanoyl)-2-azaspiro[3.3]heptan-6-yl)azetidin-3-ylamino)benzamide], the EC50 amounted to 4.22 µM.
As to `CN(C)C(=O)c1ccc(NC2CN(C3CCN(C(=O)C4(c5ccc(F)cc5)CCCC4)CC3)C2)cc1Cl` [Compound 1.34, 2-chloro-4-(1-(1-(1-(4-fluorophenyl)cyclopentanecarbonyl)piperidin-4-yl)azetidin-3-ylamino)-N,N-dimethylbenzamide], the EC50 is 3.41 µM.
The figure for `CN(C)C(=O)c1ccc(NC2CN(C3CCN(C(=O)[C@](O)(c4ccccc4)C(F)(F)F)CC3)C2)cc1F` (single isomer, unassigned) [Compound 1.87] is greater than 30 µM.
Take `CC1CN(c2nnc(-c3ccc(C(=O)N(C)C)c(Cl)c3)s2)CCN1S(=O)(=O)c1ccccc1Cl` (centres unmarked) [Compound 1.83, 2-chloro-4-(5-(4-(2-chlorophenylsulfonyl)-3-methylpiperazin-1-yl)-1,3,4-thiadiazol-2-yl)-N,N-dimethylbenzamide]: the EC50 was found to be 8.46 µM.
With `CN(C)C(=O)c1ccc(NC2CN(C3CCN(C(=O)C4(c5ccc(Cl)cc5)CCC4)CC3)C2)cc1Cl` [Compound 1.33, 2-chloro-4-(1-(1-(1-(4-chlorophenyl)cyclobutanecarbonyl)piperidin-4-yl)azetidin-3-ylamino)-N,N-dimethylbenzamide], the EC50 was 4.3 µM.
The figure for `O=C(c1ccc(NC2CN(C3CCN(C(=O)C(O)(c4cccc(Cl)c4)C(F)(F)F)CC3)C2)cc1Cl)N1CCC(F)(F)CC1` (centres unmarked) [Compound 1.133, 1-(4-(3-((3-chloro-4-(4,4-difluoropiperidine-1-carbonyl)phenyl)amino)azetidin-1-yl)piperidin-1-yl)-2-(3-chlorophenyl)-3,3,3-trifluoro-2-hydroxypropan-1-one] is 0.995 µM.

The values above are taken from patent publication US20220363662A1, “COMPOUNDS AS LXR AGONISTS” (Integral Biosciences Privated Limited, priority 2021, published 2022).
